Read-outs that look alike come from different tables or passages of the source.
Assays:
[1] = system: Two-spotted spider mites (eggs); test: Ovicidal test on two-spotted spider mites (Test Example 2); assay type: in vivo, Tetranychus urticae; conditions: 500 ppm sprayed on kidney bean leaf; six days after the spraying
Description: A kidney bean leaf (about 3.5×4.5 cm) was placed on the sufficiently soaked non-woven fabric. Female adult two-spotted spider mites (about 5 mites) were released on the leaf, and the leaf was placed in a thermostatic chamber (25±2° C., 16L8D). […] The ovicidal rate of the two-spotted spider mites was determined six days after the spraying.

Two-spotted spider mites = test: whole plant or invertebrate; assay type: in vivo; conditions: Tetranychus urticae, in Phaseolus vulgaris, 48 h, read-out: mortality of the two-spotted spider mites, 500 ppm sprayed on kidney bean leaf; two days after the spraying
Description: A kidney bean leaf (about 3.5×4.5 cm) was placed on the sufficiently soaked non-woven fabric. Two-spotted spider mites (about twenty mites) were released on the leaf, and the leaf was placed in a thermostatic chamber (25±2° C., 16L8D). The next day, a miticidal formulation containing a compound of the invention (500 ppm) was prepared by adding an aqueous solution of Sorpol 355 (manufactured by Toho Kagagu Co., Ltd.) (100 ppm) to an acetone solution containing the compound of the invention. […] The mortality of the two-spotted spider mites was determined two days after the spraying.

[2] = system: female adult citrus red mites; test: whole plant or invertebrate; assay type: in vivo; conditions: Panonychus citri, in Citrus x aurantium, 48 h, read-out: mortality of the female adult citrus red mites
Description: Thereafter, 10 female adult citrus red mites were released on the Citrus aurantium leaf on the cup. The next day, a miticidal formulation containing a compound of the invention (100 ppm) was prepared by adding an aqueous solution of Sorpol 355 (manufactured by Toho Kagagu Co., Ltd.) to an acetone solution containing the compound of the invention. […] The mortality of the female adult citrus red mites was determined two days after the spraying.

[3] = system: female adult Kanzawa spider mites; test: whole plant or invertebrate; assay type: in vivo; conditions: Tetranychus kanzawai, in Phaseolus vulgaris, 48 h, read-out: mortality of the female adult Kanzawa spider mites
Description: A kidney bean leaf (3.5 cm×4.5 cm) was placed with the rear side up on the sufficiently soaked non-woven fabric. Thereafter, 20 female adult Kanzawa spider mites were released on the kidney bean leaf on the cup. […] The mortality of the female adult Kanzawa spider mites was determined two days after the spraying.

citrus rust mites = conditions: sprayed on Citrus aurantium leaf
Description: A plastic cup (trade name: KP-120, manufactured by Konoike Plastic Co., Ltd., Iwata) was filled with tap water, and covered with a lid having a notch cut therein. A piece (4.5×5.5 cm) of non-woven fabric having a slit of about 4 cm in length, the slit being made parallel to the longer side of the fabric at a distance of 1 cm from the edge, was placed on the lid. The 4-cm long, 1-cm wide portion of the fabric was suspended inside the plastic cup through the notch. A Citrus aurantium leaf (3 cm×3 cm) was placed with the front side up on the sufficiently soaked non-woven fabric. To prevent drying and escape of mites, the leaf was covered with a filter paper (diameter: 5 cm, No. 2, Advantec Toyo Kaisha, Ltd.) having two holes of 10 mm in diameter. A leaf on which the citrus rust mites were bred was cut out into pieces with a cork borer (diameter: 2 mm), and the leaf pieces were placed with the front side up on the Citrus aurantium leaf on the non-woven fabric. The next day, the dry leaf pieces were removed. […] Subsequently, 4 ml of a miticidal formulation containing a test compound (100 ppm or 200 ppm), which was prepared according to Test Example 1, was sprayed over the leaf with a spray gun (PB-308 Piece Bon, Olympos, Osaka; 1 kgf/cm^2). […] The mortality of the citrus rust mites was determined two days after the spraying. […]

For CCCCn1nc(-c2ccc(F)cc2)cc1OC1CCN(c2ccc(C(F)(F)F)cn2)CC1 [1a-236], the “ovicidal rate of the two-spotted spider mites” value (“ovicidal rate” for short) [1] was 100%.
In the case of FC(F)(F)c1ccc(N2CCC(Oc3cc(C(F)(F)F)n[nH]3)CC2)nc1 [1a-245, 4-[3-(trifluoromethyl)pyrazol-5-yloxy]-1-[5-(trifluoromethyl)-2-pyridyl]-piperidine], the melting point is reported as 133.8 to 134.5 °C.
In the case of Cn1nc(-c2cc(Cl)cc(Cl)c2)cc1OC1CCN(c2ccc(C(F)(F)F)cn2)CC1 [1a-107, 4-[3-(3,5-dichlorophenyl)-1-methylpyrazol-5-yloxy]-1-[5-(trifluoromethyl)-2-pyridyl]-piperidine], the melting point is reported as 161.8 to 162.4 °C.
For CCOC(=O)n1nc(C(F)(F)F)cc1OC1CCN(c2ccc(C(F)(F)F)cn2)CC1 [1a-288, 4-[1-ethoxycarbonyl-3-(trifluoromethyl)pyrazol-5-yloxy]-1-[5-(trifluoromethyl)-2-pyridyl]-piperidine], the mortality at 500 ppm (Two-spotted spider mites) was no less than 50%.
Work on C[C@@H]1CN(c2ccc(C(F)(F)F)cn2)CC[C@H]1Oc1cc(-c2cc(F)cc(F)c2)nn1CC1OCCO1 (relative stereo) [1a-301, trans-4-[1-(1,3-dioxolan-2-yl)methyl-3-(3,5-difluorophenyl)pyrazol-5-yloxy]-3-methyl-1-[5-(trifluoromethyl)-2-pyridyl]-piperidine] yielded a mortality at 100 ppm [2] of 100% and a mortality at 100 ppm [3] of 100%.
In the case of CCCCn1nc(C(F)(F)F)cc1OC1CCN(c2ccc(C(F)(F)F)cn2)CC1 [1a-17, 4-[1-butyl-3-(trifluoromethyl)pyrazol-5-yloxy]-1-[5-(trifluoromethyl)-2-pyridyl]-piperidine], the mortality at 100 ppm [3] is reported as 100%.
For CCCCn1nc(-c2cc(Cl)ncc2Cl)cc1OC1CCN(c2ccc(C(F)(F)F)cn2)CC1 [1a-249], the “ovicidal rate” value [1] was 100%.
With COC(Cn1nc(O[C@@H]2[C@@H]3CC[C@H]2CN(c2ccc(C(F)(F)F)cn2)C3)cc1C(F)(F)F)OC [1b-52, 8β-[1-(2,2-dimethoxy)ethyl-5-(trifluoromethyl)pyrazol-3-yloxy]-1-[5-(trifluoromethyl)-2-pyridyl]-3-azabicyclo[3.2.1]octane] the mortality at 500 ppm (Two-spotted spider mites) was no less than 50%.
Compound FC(F)(F)c1ccc(N2CCC(Oc3cc(C(F)(F)F)nn3-c3cccc(Cl)c3)CC2)nc1 [1a-62, 4-[1-(3-chlorophenyl)-3-(trifluoromethyl)pyrazol-5-yloxy]-1-[5-(trifluoromethyl)-2-pyridyl]-piperidine] has a mortality at 100 ppm [2] of 100%.
For Cn1nc(C(F)(F)F)cc1OC1CCN(c2ccc(C(F)(F)F)cn2)CC1(C)C (centres unmarked) [1a-215, 3,3-dimethyl-4-[1-methyl-3-(trifluoromethyl)pyrazol-5-yloxy]-1-[5-(trifluoromethyl)-2-pyridyl]-piperidine], the melting point was 102.5 to 103 °C.
For CCCCn1nc(C(F)(F)F)cc1S(=O)(=O)C1CCN(c2ccc(C(F)(F)F)cn2)CC1 [1a-218, 4-[1-butyl-3-(trifluoromethyl)pyrazol-5-ylsulfonyl]-1-[5-(trifluoromethyl)-2-pyridyl]-piperidine], the melting point was 105.3 to 105.6 °C.
For FC(F)(F)CCCn1nc(OC2CCN(c3ccc(C(F)(F)F)cn3)CC2)cc1C(F)(F)F [1b-49], the “ovicidal rate” value [1] was 100%.
With CC(C)(C)n1nc(C(F)(F)F)cc1OC1CCN(c2ccc(C(F)(F)F)cn2)CC1 [1a-26] the “Insect mortality (%)” value (citrus rust mites; 100 ppm test compound) was 100% and the “Insect mortality (%)” value (citrus rust mites; 200 ppm test compound) was 67%.
In the case of Cc1ccc(-n2nc(C(F)(F)F)cc2OC2CCN(c3ccc(C(F)(F)F)cn3)CC2)nc1 [1a-247], the “ovicidal rate” value [1] is reported as 100%.
Compound C[C@@H]1CN(c2ccc(C(F)(F)F)cn2)CC[C@H]1Oc1cc(-c2cc(F)cc(F)c2)n[nH]1 (relative stereo) [1a-296, trans-4-[3-(3,5-difluorophenyl)pyrazol-5-yloxy]-3-methyl-1-[5-(trifluoromethyl)-2-pyridyl]-piperidine] has a melting point of 136.9 to 137.6 °C.

Source: patent publication US7994094B2, “N-pyridylpiperidine compound, method for producing the same, and pest control agent” (Otsuka Agritechno Co., Ltd., priority 2006, dated 2011)
